Test results reported in patent publication US20220184028A1, “TREATMENT OF AMYOTROPHIC LATERAL SCLEROSIS USING PKC ACTIVATORS” (Synaptogenix, Inc., priority 2020, published 2022).

Assay: Blood-brain-barrier crossing, brain and plasma levels in mice
Format: in vivo
Settings: intravenous
Method: Further evaluation may be performed on bryostatin or other PKC activating compound crossing the blood-brain-barrier (BBB) and the steady state levels of bryostatin or other PKC activating compound in the brain and plasma of mice.
In contrast, plasma concentrations of bryostatin or other PKC activating compound may be greater when the drug is administered as a single injection for three consecutive weeks. Blood plasma concentrations of bryostatin or other PKC activating compound may be less in mice receiving a 25 μg/m^2 dose as a “1 on/1 off” or a “2 on/1 off” administration. Without being bound to a specific theory, it may be hypothesized that the intermittent dosing regimen facilitates the transport of bryostatin or other PKC activating compound across the BBB.

Structure (SMILES): CCC/C=C/C=C/C(=O)O[C@H]1/C(=C/C(=O)OC)C[C@H]2C[C@H]([C@@H](C)O)OC(=O)C[C@H](O)C[C@@H]3C[C@H](OC(C)=O)C(C)(C)[C@](O)(C[C@@H]4C/C(=C/C(=O)OC)C[C@H](/C=C/C(C)(C)[C@]1(O)O2)O4)O3 [Bryostatin-1]
- crossing the blood-brain-barrier: crosses the BBB
